Data: article PMC12299470, “Selection of an Optimal Metabolic Model for Accurately Predicting the Hepatic Clearance of Albumin-Binding-Sensitive Drugs” (Pharmaceuticals, 2025)
Where two headings read alike, the source gives them in different places.

Legend:
[1] = design: method as in EMBL-EBI database; settings: ref EMBL-EBI database, cited from earlier work; for HBA: hydrogen-bond acceptor; for HBD: hydrogen-bond donor
[2] = system: p-glycoprotein; design: method as in El-Kattan et al. [36] and DrugBank; settings: With / Without; ref El-Kattan et al. [36] and DrugBank; cited from earlier work
[3] = system: organic anion-transporting polypeptide; design: method as in El-Kattan et al. [36] and DrugBank; settings: With / Without; ref El-Kattan et al. [36] and DrugBank; cited from earlier work
[4] = design: method as in PMID 35901930; settings: fraction unbound in plasma; regression dataset; cited from earlier work
[5] = Fitting of hepatic clearance models (MWSM, WSM, PTM, DM) to IPRL FH vs fu data; settings: male, Sprague-Dawley, rat, isolated perfused rat liver
Description: (§1) Under this condition, hepatic availability (FH) served as a clear and practical indicator of CLH. […] Based on the principles of the WSM, Equations (3) and (4) were derived by applying Equations (1) and (2), in conjunction with the concept that CLH equals the liver blood flow multiplied by the extraction ratio. Subsequently, data fitting was performed using these formulas.
(§2) Rosuvastatin consistently aligned with the MWSM predictions throughout the experiment.
(§3) The extraction recovery, calibration curves and retention time of each compound are shown in Table S1, Figures S1 and S2, respectively. All available experimental data were included in the analysis. The formula and experimental data were processed by Prism software v10.4.1 (GraphPad Software, Inc) to generate figures and calculate the degree of fit of different models.

[6] = system: isolated perfused rat liver; assay: as above
Description: as §1, §2, §3

[7] = target: human serum albumin (Homo sapiens, UniProt P02768); assay: Rapid equilibrium dialysis (RED), fraction unbound at various HSA concentrations; assay type: in vitro ADME; settings: drug 1 μg/mL in Krebs buffer, 37 °C, read-out: fraction unbound (fu)
Sequence of human serum albumin (P02768 25-609): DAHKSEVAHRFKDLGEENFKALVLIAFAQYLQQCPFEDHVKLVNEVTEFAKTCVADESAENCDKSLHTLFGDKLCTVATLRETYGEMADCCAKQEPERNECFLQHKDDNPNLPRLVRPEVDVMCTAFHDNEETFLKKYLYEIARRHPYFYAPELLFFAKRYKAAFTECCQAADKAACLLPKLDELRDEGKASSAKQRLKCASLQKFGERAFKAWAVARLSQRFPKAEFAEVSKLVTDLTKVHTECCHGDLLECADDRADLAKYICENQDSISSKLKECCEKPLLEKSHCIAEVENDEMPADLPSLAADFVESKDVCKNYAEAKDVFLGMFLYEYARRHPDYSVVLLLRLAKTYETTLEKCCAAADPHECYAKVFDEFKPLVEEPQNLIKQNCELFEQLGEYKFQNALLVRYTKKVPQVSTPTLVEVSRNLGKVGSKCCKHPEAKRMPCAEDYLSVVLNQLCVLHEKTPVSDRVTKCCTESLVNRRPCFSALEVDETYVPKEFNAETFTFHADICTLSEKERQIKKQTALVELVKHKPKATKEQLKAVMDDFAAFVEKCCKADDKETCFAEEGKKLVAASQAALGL
Description: The rapid equilibrium dialysis (RED) apparatus and test inserts were purchased from Thermo Fisher Scientific (Rockford, IL, USA). The unbound fraction of each assessed drug was determined using RED. Briefly, a drug was diluted to 1 μg/mL in Krebs buffer containing different concentrations of HSA. Five hundred microliters of the assessed drug and each of the different HSA concentrations were added to the sample chamber of an insert and 750 μL of blank buffer was added to the adjacent chamber. The loaded inserts were then assembled on a Teflon-based plate.

[8] = Krebs buffer with 0% HSA, 0% HSA
[9] = Krebs buffer with 0.1% HSA, 0.1% HSA
[10] = Krebs buffer with 2% HSA, 2% HSA
[11] = Krebs buffer with […] HSA, 0.25% HSA

Compound	Aromatic Rings [1]	Heavy Atoms [1]	P-gp [2]	OATP [3]	fu p [4]	HBA [1]	HBD [1]	fraction unbound at 8 h, 1 μg/mL [7, 8]	fraction unbound at 8 h, 1 μg/mL [7, 9]	fraction unbound at 8 h, 1 μg/mL [7, 10]	fraction unbound at 8 h, 1 μg/mL [7, 11]	Optimal Model ([6]; HSA interval 0–2%)	sum of squares, DM ([6]; HSA interval 0–2%)	sum of squares, Modified WSM ([6]; HSA interval 0–2%)	sum of squares, PTM ([6]; HSA interval 0–2%)	sum of squares, WSM ([6]; HSA interval 0–2%)	also measured
CN1C(=O)CN=C(c2ccccc2)c2cc(Cl)ccc21 [Diazepam]	2	20															
O=C(O)Cc1ccccc1Nc1c(Cl)cccc1Cl [Diclofenac]	2	19	Without	Without	0.004	3	2										fraction unbound [5]: 0.576 to 0.872; Optimal Model ([6]; HSA interval 0–0.01%): MWSM; sum of squares, DM ([6]; HSA interval 0–0.01%): 0.0792; sum of squares, Modified WSM ([6]; HSA interval 0–0.01%): 0.0278; sum of squares, PTM ([6]; HSA interval 0–0.01%): 0.0702; sum of squares, WSM ([6]; HSA interval 0–0.01%): 0.0885; Optimal Model ([6]; HSA interval 0.025–2%): WSM; sum of squares, DM ([6]; HSA interval 0.025–2%): 0.1400; sum of squares, Modified WSM ([6]; HSA interval 0.025–2%): 0.2923; sum of squares, PTM ([6]; HSA interval 0.025–2%): 0.1790; sum of squares, WSM ([6]; HSA interval 0.025–2%): 0.1194; CLint, DM ([6]; male, Sprague-Dawley, rat): 35.94; CLint, PTM ([6]; male, Sprague-Dawley, rat): 27.63; CLint, WSM ([6]; male, Sprague-Dawley, rat): 43.68
CNCCC(Oc1ccc(C(F)(F)F)cc1)c1ccccc1 (centres unmarked) [Fluoxetine]								0.99	0.45	0.05	0.4	WSM	0.2062	5.9630	0.2096	0.1154	fraction unbound at 8 h, 1 μg/mL ([7]; Krebs buffer with […] HSA, 0.025% HSA): 0.87
CC(C)c1nc(N(C)S(C)(=O)=O)nc(-c2ccc(F)cc2)c1/C=C/[C@@H](O)C[C@@H](O)CC(=O)O [Rosuvastatin]	2	33	Without	With	0.129	9	3	0.99	0.9	0.29	0.77	MWSM	1.4550	0.2132	1.0670	1.8440	fraction unbound at 8 h, 1 μg/mL ([7]; Krebs buffer with 0.375% HSA, 0.375% HSA): 0.65; fraction unbound at 8 h, 1 μg/mL ([7]; Krebs buffer with 0.5% HSA, 0.5% HSA): 0.51; fraction unbound at 8 h, 1 μg/mL ([7]; Krebs buffer with 1% HSA, 1% HSA): 0.42; PSA ([1]; polar surface area, in Å2 (unit assumed)): 140.9
